Patent US20090053807A1 (Novo Nordisk A/S, priority 1998, published 2009)
Read-outs that look alike come from different tables or passages of the source. Residues, ends and D or L forms follow the SMILES beside them. No end group written: not given here.

What was measured:
MiaPaCa cells = assay: MiaPaCa cell proliferation assay, agonist format; format: cell-based, human; details: serum-free conditions
MCF-7 cells [1] = assay: MCF-7 cell proliferation assay, agonist format; format: cell-based, human
[2] = biological target: His-tagged soluble recombinant human IGF-1R (srhIGF-1R-his) (Homo sapiens, UniProt P08069); assay: ALPHAScreen binding assay, competition with b-hIGF-1; details: Table 29
[3] = biological target: T1, soluble human insulin receptor-immunoglobulin heavy chain chimera (sIR-Fc) (Homo sapiens, UniProt P06213); assay: Fluorescence polarization competition with FITC-RP9, sIR-Fc; format: binding; details: for affinity / potency at IR: FP, FITC-RP9, summary of Table 22; for Bndg Ratio IGF-1R/1R: higher values indicated higher affinity for IR than IGF-1R
T1 construct: replacing the transmembrane domain and the intracellular domain of IR with constant domains from immunoglobulin Fc or λ subunits; made in house; host or cells: human embryonic kidney 293 cells (as described for the Bass construct)

[4] = test system: FDC-P2 cells expressing the IL-3 and human IGF-1R receptors; assay: IGF-1 proliferation assay in FDC-P2 cells, antagonist format
[5] = test system: FDC-P2 cells expressing the IL-3 and human IGF-1R receptors
[6] = biological target: soluble human insulin mini-receptor (mIR) (Homo sapiens, UniProt P06213, DEL496-730); assay: Fluorescence polarization competition with FITC-RP9, mIR; format: binding; details: target mIR, label FITC-RP9, FP
free fat cells = assay: Adipocyte / free fat cell (FFC) assay, 3H glucose incorporation into lipid; details: for FFC Pot.: potency; for FFC Pot. / FFC Pot.: agonist or antagonist: Table 8
[7] = biological target: recombinant human insulin receptor (Homo sapiens, UniProt P06213); assay: Substrate phosphorylation assay (HIR kinase); format: biochemical; details: for Kinase Pot. (nM): potency, Table 8
Description: Subsequently, a 2000-fold dilution of horseradish peroxidase (HRPO) conjugated phosphotyrosine antibody (Transduction Laboratories, Cat. No. E120H) in TBS was added. The plates were incubated for 30 min and washed 3 times with TBS. TMB (3,3′,5,5′-tetramethylbenzidine; Kem-En-Tec, Copenhagen, Denmark) was added. One substrate from Kem-En-Tec was added. After 10^−15 min, the reaction was stopped by the addition of 1% acetic acid. The absorbance, representing the extent of substrate phosphorylation, was measured in a spectrophotometer at a wavelength of 450 nm.

[8] = biological target: T2, human insulin receptor (HIR) (Homo sapiens, UniProt P06213); assay: Insulin receptor binding, competition with 125I-labeled insulin (radio-receptor assay); details: for HIR binding affinity: comparison with monomers / homodimers
T2 construct: made in house

IGF-1R [9] = biological target: T3, IGF-1R (Homo sapiens, UniProt P08069); assay: Phage ELISA, binding of phage clones to IGF-1R (ratio over background); parameters: included the heterotetrameric (alpha 2-beta 2) extracellular domain of IGF-1R isolated from a mouse myeloma cell line; purchased R&D Systems 391-GR/CF; host or cells: mouse myeloma cell line; details: ratio of IGF-1R divided by ratio of IR
IR = biological target: T4, IR (Homo sapiens, UniProt P06213); assay: Phage ELISA, binding of phage clones to IR (ratio over background); details: ratio of IR divided by ratio of IGF-1R
T4 construct: replacing the transmembrane domain and the intracellular domain of IR with constant domains from immunoglobulin Fc or λ subunits; made in house; host or cells: human embryonic kidney 293 cells (as described for the Bass construct)

IGF-1R [10] = biological target: T3, IGF-1R; details: for binding ratio for IGF-1R over IR: TR-FRET at rhIGF-1R versus FP at sIR-Fc, summary of Table 22
IGF-1R [11] = biological target: T3, IGF-1R; assay: TR-FRET, dissociation of biotinylated-20E2 from IGF-1R; format: binding; details: peptides 100 μM, IGF-1 30 μM
Description: Best fit non-linear regression analysis of the data, was used to determine dissociation rate constants. Each data point represents a single observation.
Reactions were allowed to reach equilibrium for 6 h at RT.

[12] = biological target: insulin receptor construct transfected into 32D cells (Homo sapiens, UniProt P06213); assay: IR autophosphorylation assay in IR transfected 32D cells (ELISA); details: MBP fusion peptides, FIG. 30
MCF-7 cells [13] = assay: MCF-7 cell proliferation assay, antagonist format (50 nM IGF-1); details: proliferation assays in the presence of IGF-1 using MCF-7 and MiaPaCa cells; Table 23
[14] = in the presence of a stimulating concentration of insulin
[15] = standard concentration of insulin

Compound: IGF-1: Insulin-like growth factor 1, from PeproTech; control
- ED50, proliferation (MiaPaCa cells): 5 nM
- ED50, proliferation (MCF-7 cells [1]; MCF-7, serum-free conditions): 5 nM

Compound: GIISQSCPESFYDWFAGQVSDPWWCW [Peptide G33]
- IC50 [2]: 600 nM
- affinity / potency at IR [3]: less potent
- antagonist activity at IGF-1R [4]: no antagonist activity
- IGF-1R agonist activity (MCF-7 cells [1]; MCF-7 and MiaPaCa cell proliferation (Tables 27-28)): IGF-1R agonist activity
- ED50, agonist activity at IGF-1R ([5]; FDC-P2 cells): ~10 µM
- agonist activity at IGF-1R ([5]; FDC-P2 cells): IGF-1R agonist activity
- ED50 Growth ([5]; FDC-P2 cells, agonist format, Table 15): 500 nM
- Max Action ([5]; FDC-P2 cells, Table 15): >50%
- FDC-P2 Agonist ([5]; Table 30): +

Compound: GRVDWLQRNANFYDWFVAELG [Peptide S175]
- Hill [6]: −1.72
- EC50 [5]: 10 µM
- ED50, agonist activity at IGF-1R ([5]; FDC-P2 cells): > 10 µM
- agonist activity at IGF-1R ([5]; FDC-P2 cells): IGF-1R agonist activity

Compound: CC(C)C[C@H](NC(=O)[C@H](CCC(N)=O)NC(=O)[C@H](CCCNC(=N)N)NC(=O)[C@H](CCC(=O)O)NC(=O)[C@H](Cc1ccccc1)NC(=O)[C@H](Cc1c[nH]c2ccccc12)NC(=O)[C@H](CC(=O)O)NC(=O)[C@H](Cc1ccc(O)cc1)NC(=O)[C@H](Cc1ccccc1)NC(=O)[C@H](CO)NC(=O)[C@@H](N)CCC(=O)O)C(=O)NCC(=O)O [Peptide S390]
- activity in the FFC assay / at IR (free fat cells): potency similar to full-length RP9 monomer peptides
- Hill [6]: −0.94

Compound: MADYKDDDDKWLDQEWAWVQCEWGRGCPSGGSGGSGSLDESFYDWFERQLGKKAAA(ETAG)PG [Peptide 539]
- activity in the FFC assay / at IR (free fat cells): full agonist
- FFC Pot. (free fat cells): 10 nM
- activity in the HIR kinase assay [7]: more active
- HIR binding affinity [8]: substantially higher (several orders of magnitude) affinity

Compound: FYVQQYWGHENFYDWFDRQVSQSGGAG [H2CA-4-P1-IGFR]
- Comparisons IGF-1R/IR (IGF-1R [9]): 3.8
- Comparisons IR/IGF-1R (IR): 0.3

Compound: MADYKDDDDKGSLDESFYDWFERQLGKKGGSGGSWLDQEWAWVQCEVYGRGCPSAAA(ETAG)PG [Peptide 537]
- activity in the FFC assay / at IR (free fat cells): specific insulin receptor antagonists
- FFC Pot.: agonist or antagonist (free fat cells): N
- activity in the FFC assay (free fat cells; [14]): antagonists
- FFC Pot. (free fat cells): 10 nM
- activity in the FFC assay (free fat cells; [15]): inactive
- Kinase Pot. (nM) [7]: Inactive
- HIR binding affinity [8]: substantially higher (several orders of magnitude) affinity

Compound: PPWGARFYDAIEQLVFDNL [RP4]
- affinity / potency at IR [3]: high affinities for IR
- Bndg Ratio IGF-1R/1R [3]: 476
- IC50 ([3]; vs. FITC-RP9, Table 22, read-out: FP sIR-Fc IC50): 17 nM
- IC50 (IGF-1R [10]): 8.1 µM
- binding ratio for IGF-1R over IR (IGF-1R [10]): high binding ratios for IGF-1R over IR

Compound: FHENFYDWFVQRVSKK [Peptide H2C]
- affinity / potency at IR [3]: slightly less potent
- Hill [6]: −0.89
- binding ratio for IGF-1R over IR (IGF-1R [10]): lower binding ratios for IGF-1R over IR
- rate of dissociation of b-20E2 (IGF-1R [11]): similar
- stimulation of autophosphorylation of IR [12]: stimulate autophosphorylation of IR

Compound: MADYKDDDDKGSLDESFYDWFERQLGKKGGSGGSGGSGGSWLDQEWAWVQCEVYGRGCPSAAA(ETAG)PG [Peptide 538]
- activity in the FFC assay / at IR (free fat cells): specific insulin receptor antagonists
- FFC Pot.: agonist or antagonist (free fat cells): N
- activity in the FFC assay (free fat cells; [14]): antagonists
- FFC Pot. (free fat cells): 10 nM
- activity in the FFC assay (free fat cells; [15]): inactive
- Kinase Pot. (nM) [7]: Inactive
- HIR binding affinity [8]: substantially higher (several orders of magnitude) affinity

Compound: WFGYAWLS-NH2 (C-terminus assumed) [Peptide S317]
- activity in the FFC assay / at IR (free fat cells): increased potency in FFC assays
- FEC (free fat cells; FFC assay potency, number of + grades agonist potency): 0
- HIR binding affinity [8]: increased HIR binding affinity

Compound: CC(C)C[C@@H]1NC(=O)[C@@H](NC(=O)[C@H](CO)NC(=O)[C@H](Cc2ccc(O)cc2)NC(=O)[C@H](Cc2ccccc2)NC(=O)[C@@H](N)CO)CSSC[C@@H](C(=O)N[C@@H](CCCNC(=N)N)C(=O)N[C@@H](CCCCN)C(=O)N[C@@H](CCCCN)C(=O)O)NC(=O)CNC(=O)[C@H](CC(=O)O)NC(=O)[C@H](Cc2c[nH]c3ccccc23)NC(=O)[C@H](CCC(N)=O)NC(=O)CNC(=O)[C@H](CCCNC(=N)N)NC(=O)[C@H](CO)NC(=O)[C@H](CCCCN)NC(=O)[C@H](CCC(=O)O)NC(=O)[C@H](C)NC(=O)[C@@H]2CCCN2C(=O)CNC(=O)[C@H](CC(N)=O)NC(=O)[C@H](C(C)C)NC(=O)[C@H](CC(C)C)NC(=O)[C@H](CO)NC(=O)[C@H](CCC(=O)O)NC1=O [RP33-IGF with KK]
- Activ. (MCF-7 cells [13]): Antag.

Compound: CC[C@@H](C)[C@@H](NC(=O)[C@H](CCC(=O)O)NC(=O)[C@H](CC(=O)O)NC(=O)[C@H](Cc1ccccc1)NC(=O)[C@H](Cc1c[nH]c2ccccc12)NC(=O)[C@H](CCC(=O)O)NC(=O)[C@H](Cc1ccc(O)cc1)NC(=O)[C@H](Cc1ccccc1)NC(=O)[C@H](CCC(=O)O)NC(=O)[C@H](CCCCN)NC(=O)[C@H](CC(N)=O)NC(=O)[C@H](CC(N)=O)NC(=O)[C@@H](N)CCCCN)C(=O)NCC(=O)N[C@H](CCC(N)=O)C(=O)O [Peptide S320] (HELM PEPTIDE1{K.N.N.K.E.F.Y.E.W.F.D.E.[dI].G.[dQ]}$$$$V2.0; N-terminus and C-terminus assumed)
- Kd ([8]; HIR binding affinity of synthetic peptides): 2800 nM

Compound: DYKDFYDAIDQLVRGSARAGGTRD [20E2(D118)]
- Bndg Ratio IGF-1R/1R [3]: 1.9
- IC50 (IGF-1R [10]; read-out: TR-FRET rhIGF-1R IC50, vs. b-20E2, Table 22): 0.1 µM
